Measurements reported in patent US8017612B2, “Piperazine compound and use thereof as a HCV polymerase inhibitor” (priority 2006, dated 2011).

Assays:
[1] = target: T1, HCV polymerase (NS5B) type 1a (Hepatitis C virus genotype 1a, UniProt P26664); assay: Assay of enzyme (HCV polymerase) inhibitory activity, type 1a enzyme; assay type: biochemical, HCV type 1a (cloned from the blood of patients); details: HCV polymerase inhibitory activity IC50, 1a, type 1a enzyme
T1 construct: made in house; host or cells: Escherichia coli (by the 'similar method' of the 1b enzyme)
Procedure, shortened: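 His-tagged NS5B, C-terminal 47 residues deleted, type 1a at 1.5 μg/ml, with 5 μg/ml HCV 3′UTR substrate RNA, 50 μM ATP/GTP/CTP, 2 μM UTP plus [3H]UTP, pH 7.5 Tris, 5 mM MgCl2; 60 min at 25° C. TCA-precipitated RNA counted by scintillation; IC50 from radioactivity with vs. without compound.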

[2] = target: T2, HCV polymerase (NS5B) type 1b (Hepatitis C virus genotype 1b, UniProt P26663); assay: Assay of enzyme (HCV polymerase) inhibitory activity, type 1b enzyme; assay type: biochemical, HCV BK strain (type 1b); details: HCV polymerase inhibitory activity IC50, 1b, type 1b enzyme
T2 construct: a region encoding NS5B (J Virol 1991 March, 65(3), 1105-13, 544 amino acids after deletion of 47 amino acids on the C-terminal); 6xHis (C); made in house; host or cells: Escherichia coli
Procedure, shortened: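 His-tagged, C-terminally truncated NS5B (BK strain, 1b; 0.5 μg/ml) incubated with compound 60 min at 25 °C on 3′UTR-derived substrate RNA (5 μg/ml), 50 μM ATP/GTP/CTP, 2 μM UTP plus [3H]UTP, pH 7.5. Acid-precipitated RNA counted; IC50 from radioactivity with and without compound.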

Structure (SMILES)	IC50 [1]	IC50 [2]
CCCc1ccc(CNC(=O)[C@H]2CN(c3ccc(C(=O)O)c(F)c3)CCN2S(=O)(=O)c2ccc(CC)cc2)cc1 [Example 889, 4-[(R)-4-(4-ethyl-benzenesulfonyl)-3-(4-propyl-benzylcarbamoyl)-piperazin-1-yl]-2-fluoro-benzoic acid]	> 1000 nM	> 1000 nM
CCC(C)(C)c1ccc(CNC(=O)[C@H]2CN(c3nc(Cl)c(C(=O)O)s3)CCN2S(=O)(=O)c2ccc(OC(F)(F)F)cc2)cc1 [Example 890, 4-chloro-2-[(R)-3-[4-(1,1-dimethyl-propyl)-benzylcarbamoyl]-4-(4-trifluoromethoxy-benzenesulfonyl)-piperazin-1-yl]-thiazole-5-carboxylic acid]	< 100 nM	< 100 nM
CCCc1ccc(CNC(=O)[C@H]2CN(c3nc4c(C(=O)OCC)nncc4s3)CCN2S(=O)(=O)c2ccc(CC)cc2)cc1 [Example 891, 2-[(R)-4-(4-ethyl-benzenesulfonyl)-3-(4-propyl-benzylcarbamoyl)-piperazin-1-yl]-thiazolo[4,5-d]pyridazine-4-carboxylic acid ethyl ester]	< 100 nM	< 100 nM
CCCc1ccc(CNC(=O)[C@H]2CN(c3nc4c(C(=O)O)nncc4s3)CCN2S(=O)(=O)c2ccc(CC)cc2)cc1 [Example 892, 2-[(R)-4-(4-ethyl-benzenesulfonyl)-3-(4-propyl-benzylcarbamoyl)-piperazin-1-yl]-thiazolo[4,5-d]pyridazine-4-carboxylic acid]	< 100 nM	< 100 nM
Cc1n[nH]c(=O)c2sc(N3CCN(S(=O)(=O)c4ccc(C(F)(F)F)cc4)[C@@H](C(=O)NCc4ccc(OC(F)(F)F)cc4)C3)nc12 [Example 893, (R)-4-(4-methyl-7-oxo-6,7-dihydro-thiazolo[4,5-d]pyridazin-2-yl)-1-(4-trifluoromethyl-benzenesulfonyl)-piperazine-2-carboxylic acid 4-trifluoromethoxy-benzylamide]	< 100 nM	< 100 nM
CCC(F)(F)c1ccc(CNC(=O)[C@H]2CN(c3nc4ncncc4s3)CCN2S(=O)(=O)c2ccc(OC(F)(F)F)cc2)cc1 [Example 894, (R)-4-thiazolo[4,5-d]pyrimidin-2-yl-1-(4-trifluoromethoxy-benzenesulfonyl)-piperazine-2-carboxylic acid 4-(1,1-difluoro-propyl)-benzylamide]	< 100 nM	< 100 nM
CCC(F)(F)c1ccc(CNC(=O)[C@H]2CN(c3nc4nc(Cl)ncc4s3)CCN2S(=O)(=O)c2ccc(OC(F)(F)F)cc2)cc1 [Example 895, (R)-4-(5-chloro-thiazolo[4,5-d]pyrimidin-2-yl)-1-(4-trifluoromethoxy-benzenesulfonyl)-piperazine-2-carboxylic acid 4-(1,1-difluoro-propyl)-benzylamide]	< 100 nM	< 100 nM
O=C(NCc1ccc(OC(F)(F)F)cc1)[C@H]1CN(c2nc3cnnc(Cl)c3s2)CCN1S(=O)(=O)c1ccc(C(F)(F)F)cc1 [Example 896, (R)-4-(7-chloro-thiazolo[4,5-d]pyridazin-2-yl)-1-(4-trifluoromethyl-benzenesulfonyl)-piperazine-2-carboxylic acid 4-trifluoromethoxy-benzylamide]	< 100 nM	< 100 nM
O=C(NCc1ccc(OC(F)(F)F)cc1)[C@H]1CN(c2nc3cnncc3s2)CCN1S(=O)(=O)c1ccc(C(F)(F)F)cc1 [Example 897, (R)-4-thiazolo[4,5-d]pyridazin-2-yl-1-(4-trifluoromethyl-benzenesulfonyl)-piperazine-2-carboxylic acid 4-trifluoromethoxy-benzylamide]	< 100 nM	< 100 nM
O=C(NCc1ccc(OC(F)(F)C(F)F)cc1)[C@H]1CN(c2nc3cn[nH]c(=O)c3s2)CCN1S(=O)(=O)c1ccc(OC(F)(F)F)cc1 [Example 898, (R)-4-(7-oxo-6,7-dihydro-thiazolo[4,5-d]pyridazin-2-yl)-1-(4-trifluoromethoxy-benzenesulfonyl)-piperazine-2-carboxylic acid 4-(1,1,2,2-tetrafluoro-ethoxy)-benzylamide]	< 100 nM	< 100 nM
O=C(NCC1CC(c2ccccc2)C1)[C@H]1CN(c2nc3cn[nH]c(=O)c3s2)CCN1S(=O)(=O)c1ccc(OC(F)(F)F)cc1 (stereo partly drawn) [Example 899, (R)-4-(7-oxo-6,7-dihydro-thiazolo[4,5-d]pyridazin-2-yl)-1-(4-trifluoromethoxy-benzenesulfonyl)-piperazine-2-carboxylic acid (3-phenyl-cyclobutylmethyl)-amide]	> 1000 nM	100 to 1000 nM
CCC(F)(F)c1ccc(CNC(=O)[C@H]2CN(c3nc4cn[nH]c(=O)c4s3)CCN2S(=O)(=O)c2ccc(C(F)(F)F)cc2)cc1 [Example 900, (R)-4-(7-oxo-6,7-dihydro-thiazolo[4,5-d]pyridazin-2-yl)-1-(4-trifluoromethyl-benzenesulfonyl)-piperazine-2-carboxylic acid 4-(1,1-difluoro-propyl)-benzylamide]	< 100 nM	< 100 nM
O=C(NCc1ccc2ccccc2c1)[C@H]1CN(c2nc3cn[nH]c(=O)c3s2)CCN1S(=O)(=O)c1ccc(OC(F)(F)F)cc1 [Example 901, (R)-4-(7-oxo-6,7-dihydro-thiazolo[4,5-d]pyridazin-2-yl)-1-(4-trifluoromethoxy-benzenesulfonyl)-piperazine-2-carboxylic acid (naphthalen-2-ylmethyl)-amide]	< 100 nM	< 100 nM
CCC(F)(F)c1ccc(CNC(=O)[C@H]2CN(c3nc4nc(Cl)ncc4s3)CCN2S(=O)(=O)c2ccc(C(F)(F)F)cc2)cc1 [Example 902, (R)-4-(5-chloro-thiazolo[4,5-d]pyrimidin-2-yl)-1-(4-trifluoromethyl-benzenesulfonyl)-piperazine-2-carboxylic acid 4-(1,1-difluoro-propyl)-benzylamide]	< 100 nM	< 100 nM
CCC(F)(F)c1ccc(CNC(=O)[C@H]2CN(c3nc4ncncc4s3)CCN2S(=O)(=O)c2ccc(C(F)(F)F)cc2)cc1 [Example 903, (R)-4-thiazolo[4,5-d]pyrimidin-2-yl-1-(4-trifluoromethyl-benzenesulfonyl)-piperazine-2-carboxylic acid 4-(1,1-difluoro-propyl)-benzylamide]	< 100 nM	< 100 nM
Cn1ncc2nc(N3CCN(S(=O)(=O)c4ccc(OC(F)(F)F)cc4)[C@@H](C(=O)NCc4ccc(OC(F)(F)F)cc4)C3)sc2c1=O [Example 904, (R)-4-(6-methyl-7-oxo-6,7-dihydro-thiazolo[4,5-d]pyridazin-2-yl)-1-(4-trifluoromethoxy-benzenesulfonyl)-piperazine-2-carboxylic acid 4-trifluoromethoxy-benzylamide]	100 to 1000 nM	< 100 nM
COc1ncc2sc(N3CCN(S(=O)(=O)c4ccc(C(F)(F)F)cc4)[C@@H](C(=O)NCc4ccc(OC(F)(F)F)cc4)C3)nc2n1 [Example 905, (R)-4-(5-methoxy-thiazolo[4,5-d]pyrimidin-2-yl)-1-(4-trifluoromethyl-benzenesulfonyl)-piperazine-2-carboxylic acid 4-trifluoromethoxy-benzylamide]	< 100 nM	< 100 nM
Cc1nnc(Cl)c2sc(N3CCN(S(=O)(=O)c4ccc(OC(F)(F)F)cc4)[C@@H](C(=O)NCc4ccc(OC(F)(F)F)cc4)C3)nc12 [Example 906, (R)-4-(7-chloro-4-methyl-thiazolo[4,5-d]pyridazin-2-yl)-1-(4-trifluoromethoxy-benzenesulfonyl)-piperazine-2-carboxylic acid 4-trifluoromethoxy-benzylamide]	< 100 nM	< 100 nM
Cc1nc(Cl)c2sc(N3CCN(S(=O)(=O)c4ccc(OC(F)(F)F)cc4)[C@@H](C(=O)NCc4ccc(OC(F)(F)F)cc4)C3)nc2n1 [Example 907, (R)-4-(7-chloro-5-methyl-thiazolo[4,5-d]pyrimidin-2-yl)-1-(4-trifluoromethoxy-benzenesulfonyl)-piperazine-2-carboxylic acid 4-trifluoromethoxy-benzylamide]	< 100 nM	< 100 nM
Cc1ncc2sc(N3CCN(S(=O)(=O)c4ccc(OC(F)(F)F)cc4)[C@@H](C(=O)NCc4ccc(OC(F)(F)F)cc4)C3)nc2n1 [Example 908, (R)-4-(5-methyl-thiazolo[4,5-d]pyrimidin-2-yl)-1-(4-trifluoromethoxy-benzenesulfonyl)-piperazine-2-carboxylic acid 4-trifluoromethoxy-benzylamide]	< 100 nM	< 100 nM
CCCc1nc(C)c(CNC(=O)[C@H]2CN(c3nc4cn[nH]c(=O)c4s3)CCN2S(=O)(=O)c2ccc(OC(F)(F)F)cc2)s1 [Example 909, (R)-4-(7-oxo-6,7-dihydro-thiazolo[4,5-d]pyridazin-2-yl)-1-(4-trifluoromethoxy-benzenesulfonyl)-piperazine-2-carboxylic acid (4-methyl-2-propyl-thiazol-5-ylmethyl)-amide]	100 to 1000 nM	< 100 nM
Cc1nc2nc(N3CCN(S(=O)(=O)c4ccc(OC(F)(F)F)cc4)[C@@H](C(=O)NCc4ccc(OC(F)(F)F)cc4)C3)sc2c(=O)[nH]1 [Example 910, (R)-4-(5-methyl-7-oxo-6,7-dihydro-thiazolo[4,5-d]pyrimidin-2-yl)-1-(4-trifluoromethoxy-benzenesulfonyl)-piperazine-2-carboxylic acid 4-trifluoromethoxy-benzylamide]	< 100 nM	< 100 nM
